Measurements as given in BigSolDB 2.1.

Question: For O=c1cc(-c2ccc(O)cc2)oc2cc(O)cc(O)c12, which solubility (mole fraction) (in DMSO, 298.2 K) is on record?
Answer: The solubility (mole fraction) was 0.376.

Question: And the solubility (mole fraction) (in DMSO, 303.2 K)?
Answer: Its solubility (mole fraction) is 0.384.

Question: What about the solubility (mole fraction) (in DMSO, 308.2 K) of the same compound?
Answer: The solubility (mole fraction) was 0.395.

Question: And the solubility (mole fraction) (in DMSO, 313.2 K)?
Answer: Its solubility (mole fraction) is 0.407.

Question: What about the solubility (mole fraction) (in DMSO, 318.2 K) of the same compound?
Answer: Its solubility (mole fraction) is 0.418.

Question: What about the solubility (mole fraction) (in PEG-400, 298.2 K) of the same compound?
Answer: The solubility (mole fraction) was 0.397.

Question: What about the solubility (mole fraction) (in PEG-400, 303.2 K) of the same compound?
Answer: The solubility (mole fraction) was 0.405.

Question: And the solubility (mole fraction) (in PEG-400, 308.2 K)?
Answer: The solubility (mole fraction) was 0.413.

Question: And the solubility (mole fraction) (in PEG-400, 313.2 K)?
Answer: Its solubility (mole fraction) is 0.42.

Question: And the solubility (mole fraction) (in PEG-400, 318.2 K)?
Answer: Its solubility (mole fraction) is 0.427.

Question: What about the solubility (mole fraction) (in ethanol, 298.2 K) of the same compound?
Answer: The solubility (mole fraction) was 0.00025.

Question: And the solubility (mole fraction) (in ethanol, 303.2 K)?
Answer: The solubility (mole fraction) was 0.000314.

Question: And the solubility (mole fraction) (in ethanol, 308.2 K)?
Answer: The solubility (mole fraction) was 0.000358.

Question: And the solubility (mole fraction) (in ethanol, 313.2 K)?
Answer: The solubility (mole fraction) was 0.000426.

Question: What about the solubility (mole fraction) (in ethanol, 318.2 K) of the same compound?
Answer: The solubility (mole fraction) was 0.000486.

Question: And the solubility (mole fraction) (in ethyl acetate, 298.2 K)?
Answer: The solubility (mole fraction) was 0.000241.

Question: What about the solubility (mole fraction) (in ethyl acetate, 303.2 K) of the same compound?
Answer: The solubility (mole fraction) was 0.000284.

Question: What about the solubility (mole fraction) (in ethyl acetate, 308.2 K) of the same compound?
Answer: The solubility (mole fraction) was 0.000326.

Question: What about the solubility (mole fraction) (in ethyl acetate, 313.2 K) of the same compound?
Answer: The solubility (mole fraction) was 0.000394.

Question: What about the solubility (mole fraction) (in ethyl acetate, 318.2 K) of the same compound?
Answer: Its solubility (mole fraction) is 0.000446.

Question: And the solubility (mole fraction) (in ethylene glycol, 298.2 K)?
Answer: The solubility (mole fraction) was 0.00522.

Question: What about the solubility (mole fraction) (in ethylene glycol, 303.2 K) of the same compound?
Answer: The solubility (mole fraction) was 0.00573.

Question: And the solubility (mole fraction) (in ethylene glycol, 308.2 K)?
Answer: Its solubility (mole fraction) is 0.00644.

Question: What about the solubility (mole fraction) (in ethylene glycol, 313.2 K) of the same compound?
Answer: Its solubility (mole fraction) is 0.00732.

Question: What about the solubility (mole fraction) (in ethylene glycol, 318.2 K) of the same compound?
Answer: Its solubility (mole fraction) is 0.00822.

Question: What about the solubility (mole fraction) (in isopropanol, 298.2 K) of the same compound?
Answer: Its solubility (mole fraction) is 0.00038.

Question: What about the solubility (mole fraction) (in isopropanol, 303.2 K) of the same compound?
Answer: The solubility (mole fraction) was 0.000427.

Question: What about the solubility (mole fraction) (in isopropanol, 308.2 K) of the same compound?
Answer: Its solubility (mole fraction) is 0.000485.

Question: And the solubility (mole fraction) (in isopropanol, 313.2 K)?
Answer: Its solubility (mole fraction) is 0.000551.

Question: What about the solubility (mole fraction) (in isopropanol, 318.2 K) of the same compound?
Answer: The solubility (mole fraction) was 0.000629.

Question: What about the solubility (mole fraction) (in methanol, 298.2 K) of the same compound?
Answer: The solubility (mole fraction) was 0.000142.

Question: What about the solubility (mole fraction) (in methanol, 303.2 K) of the same compound?
Answer: The solubility (mole fraction) was 0.000172.

Question: And the solubility (mole fraction) (in methanol, 308.2 K)?
Answer: Its solubility (mole fraction) is 0.000207.

Question: What about the solubility (mole fraction) (in methanol, 313.2 K) of the same compound?
Answer: Its solubility (mole fraction) is 0.000249.

Question: And the solubility (mole fraction) (in methanol, 318.2 K)?
Answer: Its solubility (mole fraction) is 0.000296.

Question: What about the solubility (mole fraction) (in n-butanol, 298.2 K) of the same compound?
Answer: The solubility (mole fraction) was 0.000562.

Question: What about the solubility (mole fraction) (in n-butanol, 303.2 K) of the same compound?
Answer: The solubility (mole fraction) was 0.00063.

Question: And the solubility (mole fraction) (in n-butanol, 308.2 K)?
Answer: Its solubility (mole fraction) is 0.000713.

Question: What about the solubility (mole fraction) (in n-butanol, 313.2 K) of the same compound?
Answer: The solubility (mole fraction) was 0.000808.

Question: And the solubility (mole fraction) (in n-butanol, 318.2 K)?
Answer: The solubility (mole fraction) was 0.000918.

Question: What about the solubility (mole fraction) (in propylene glycol, 298.2 K) of the same compound?
Answer: Its solubility (mole fraction) is 0.0101.

Question: And the solubility (mole fraction) (in propylene glycol, 303.2 K)?
Answer: The solubility (mole fraction) was 0.0112.

Question: And the solubility (mole fraction) (in propylene glycol, 308.2 K)?
Answer: Its solubility (mole fraction) is 0.0124.

Question: What about the solubility (mole fraction) (in propylene glycol, 313.2 K) of the same compound?
Answer: Its solubility (mole fraction) is 0.0137.

Question: What about the solubility (mole fraction) (in propylene glycol, 318.2 K) of the same compound?
Answer: Its solubility (mole fraction) is 0.015.

Question: What about the solubility (mole fraction) (in sec-butanol, 298.2 K) of the same compound?
Answer: Its solubility (mole fraction) is 0.000534.

Question: What about the solubility (mole fraction) (in sec-butanol, 303.2 K) of the same compound?
Answer: Its solubility (mole fraction) is 0.000603.

Question: What about the solubility (mole fraction) (in sec-butanol, 308.2 K) of the same compound?
Answer: The solubility (mole fraction) was 0.000685.

Question: And the solubility (mole fraction) (in sec-butanol, 313.2 K)?
Answer: The solubility (mole fraction) was 0.000781.

Question: What about the solubility (mole fraction) (in sec-butanol, 318.2 K) of the same compound?
Answer: Its solubility (mole fraction) is 0.00089.

Question: And the solubility (mole fraction) (in transcutol, 298.2 K)?
Answer: Its solubility (mole fraction) is 0.334.

Question: What about the solubility (mole fraction) (in transcutol, 303.2 K) of the same compound?
Answer: The solubility (mole fraction) was 0.345.

Question: And the solubility (mole fraction) (in transcutol, 308.2 K)?
Answer: Its solubility (mole fraction) is 0.357.

Question: What about the solubility (mole fraction) (in transcutol, 313.2 K) of the same compound?
Answer: The solubility (mole fraction) was 0.371.

Question: And the solubility (mole fraction) (in transcutol, 318.2 K)?
Answer: Its solubility (mole fraction) is 0.383.

Question: And the solubility (mole fraction) (in water, 298.2 K)?
Answer: Its solubility (mole fraction) is 1.04e-06.

Question: What about the solubility (mole fraction) (in water, 303.2 K) of the same compound?
Answer: Its solubility (mole fraction) is 1.33e-06.

Question: What about the solubility (mole fraction) (in water, 308.2 K) of the same compound?
Answer: The solubility (mole fraction) was 1.73e-06.

Question: What about the solubility (mole fraction) (in water, 313.2 K) of the same compound?
Answer: The solubility (mole fraction) was 2.27e-06.

Question: And the solubility (mole fraction) (in water, 318.2 K)?
Answer: Its solubility (mole fraction) is 3.08e-06.
